{
  "source": "the SangsterLogP compilation",
  "data": [
    {"values": [
      {"smiles": "CCC(CC)CO", "logP": 1.78},
      {"smiles": "CC(C)CC(C)(C)O", "logP": 1.67},
      {"smiles": "CCCCCC(O)CCC", "note": "(stereo unspecified)", "logP": 3.36},
      {"smiles": "CC(C)(C)CCO", "logP": 1.57},
      {"smiles": "CC(C)(C)CCCO", "logP": 2.39},
      {"smiles": "CC(C)CC(C)CO", "note": "(stereo unspecified)", "logP": 2.19},
      {"smiles": "CCCCCCCCCCCCCCO", "logP": 6.11},
      {"smiles": "CC(C)CC(C)O", "note": "(stereo unspecified)", "logP": 1.67},
      {"smiles": "CCCCCCC(O)CC", "note": "(stereo unspecified)", "logP": 3.36},
      {"smiles": "CC(C)C(O)C(C)C", "logP": 2.31},
      {"smiles": "CCC(C)(C)CO", "logP": 1.57},
      {"smiles": "CCCCC(O)CC", "note": "(stereo unspecified)", "logP": 2.31},
      {"smiles": "CCCCC(O)CCCC", "logP": 3.36},
      {"smiles": "CCCCCCCCCCCCCCCO", "logP": 6.64},
      {"smiles": "CCC(O)C(C)(C)C", "note": "(stereo unspecified)", "logP": 2.27},
      {"smiles": "CCCC(C)(C)CO", "logP": 2.39}
    ]}
  ]
}
